Our source for the IC50 values is US10660877B2 (BRISTOL-MYERS SQUIBB COMPANY, priority 2016, dated 2020).

Test [1] addresses human TLR9 (Homo sapiens (Human), UniProt Q9NR96). Kind of test: TLR9 inhibition reporter assay (HEK-Blue cells, SEAP reporter, ODN2006 stimulation).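 Also: compounds tested over 0.05 nM to 50 µM, 22 h incubation, inhibition taken as SEAP signal drop from agonist plus DMSO wells toward a known inhibitor control.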 As to conditions: read-out: TLR9 IC50, HEK-Blue cells overexpressing human TLR9, ODN2006 5 nM. In general terms: In a reporter assay the amount or activity of a reporter protein is the signal.
Test [2] deals with human TLR8 (Homo sapiens (Human), UniProt Q9NR97). Kind of test: TLR8 inhibition reporter assay (HEK-Blue cells, SEAP reporter, R848 stimulation).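 Also: compounds tested from 0.05 nM to 50 µM, 22 h at 37 °C, SEAP measured with HEK-Blue Detection, inhibition relative to agonist plus DMSO versus a known inhibitor.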 As to conditions: read-out: TLR8 IC50, HEK-Blue cells overexpressing human TLR8, R848 15.9 μM.
In test [3] the target is human TLR7 (Homo sapiens (Human), UniProt Q9NYK1). Briefly: TLR7 inhibition reporter assay (HEK-Blue cells, SEAP reporter, gardiquimod stimulation). Format: cell-based. Conditions: HEK-Blue cells overexpressing human TLR7, gardiquimod 7.5 μM.

As usually defined, the IC50 is the concentration at which inhibition is half-maximal.

Sequence of human TLR8 (Q9NR97 27-1041): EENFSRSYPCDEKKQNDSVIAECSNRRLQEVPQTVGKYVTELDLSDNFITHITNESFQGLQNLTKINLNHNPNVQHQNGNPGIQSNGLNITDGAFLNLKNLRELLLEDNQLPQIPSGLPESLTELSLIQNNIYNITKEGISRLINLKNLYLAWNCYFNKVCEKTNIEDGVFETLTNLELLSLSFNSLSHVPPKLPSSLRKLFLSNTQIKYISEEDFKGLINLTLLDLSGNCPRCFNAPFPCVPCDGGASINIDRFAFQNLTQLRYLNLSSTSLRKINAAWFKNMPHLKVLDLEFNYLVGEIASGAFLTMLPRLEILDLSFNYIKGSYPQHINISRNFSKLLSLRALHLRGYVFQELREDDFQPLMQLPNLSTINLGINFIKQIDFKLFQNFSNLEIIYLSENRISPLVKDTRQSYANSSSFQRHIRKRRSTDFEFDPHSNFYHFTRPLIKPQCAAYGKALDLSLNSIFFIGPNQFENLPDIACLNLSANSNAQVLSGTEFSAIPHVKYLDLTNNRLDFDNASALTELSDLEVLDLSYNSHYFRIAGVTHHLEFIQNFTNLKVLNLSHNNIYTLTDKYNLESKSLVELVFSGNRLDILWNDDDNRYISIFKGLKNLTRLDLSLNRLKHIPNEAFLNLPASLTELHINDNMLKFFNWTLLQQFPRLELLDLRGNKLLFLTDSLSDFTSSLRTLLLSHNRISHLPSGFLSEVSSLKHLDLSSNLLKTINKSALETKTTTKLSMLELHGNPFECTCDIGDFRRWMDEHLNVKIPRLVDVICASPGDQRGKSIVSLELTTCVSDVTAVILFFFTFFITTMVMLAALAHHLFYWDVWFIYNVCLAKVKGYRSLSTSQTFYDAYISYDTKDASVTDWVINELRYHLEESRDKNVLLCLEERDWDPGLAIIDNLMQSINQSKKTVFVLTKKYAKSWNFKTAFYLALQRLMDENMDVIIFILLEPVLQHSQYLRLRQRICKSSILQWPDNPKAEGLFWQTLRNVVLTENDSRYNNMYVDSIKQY
Sequence of human TLR9 (Q9NR96 26-1032): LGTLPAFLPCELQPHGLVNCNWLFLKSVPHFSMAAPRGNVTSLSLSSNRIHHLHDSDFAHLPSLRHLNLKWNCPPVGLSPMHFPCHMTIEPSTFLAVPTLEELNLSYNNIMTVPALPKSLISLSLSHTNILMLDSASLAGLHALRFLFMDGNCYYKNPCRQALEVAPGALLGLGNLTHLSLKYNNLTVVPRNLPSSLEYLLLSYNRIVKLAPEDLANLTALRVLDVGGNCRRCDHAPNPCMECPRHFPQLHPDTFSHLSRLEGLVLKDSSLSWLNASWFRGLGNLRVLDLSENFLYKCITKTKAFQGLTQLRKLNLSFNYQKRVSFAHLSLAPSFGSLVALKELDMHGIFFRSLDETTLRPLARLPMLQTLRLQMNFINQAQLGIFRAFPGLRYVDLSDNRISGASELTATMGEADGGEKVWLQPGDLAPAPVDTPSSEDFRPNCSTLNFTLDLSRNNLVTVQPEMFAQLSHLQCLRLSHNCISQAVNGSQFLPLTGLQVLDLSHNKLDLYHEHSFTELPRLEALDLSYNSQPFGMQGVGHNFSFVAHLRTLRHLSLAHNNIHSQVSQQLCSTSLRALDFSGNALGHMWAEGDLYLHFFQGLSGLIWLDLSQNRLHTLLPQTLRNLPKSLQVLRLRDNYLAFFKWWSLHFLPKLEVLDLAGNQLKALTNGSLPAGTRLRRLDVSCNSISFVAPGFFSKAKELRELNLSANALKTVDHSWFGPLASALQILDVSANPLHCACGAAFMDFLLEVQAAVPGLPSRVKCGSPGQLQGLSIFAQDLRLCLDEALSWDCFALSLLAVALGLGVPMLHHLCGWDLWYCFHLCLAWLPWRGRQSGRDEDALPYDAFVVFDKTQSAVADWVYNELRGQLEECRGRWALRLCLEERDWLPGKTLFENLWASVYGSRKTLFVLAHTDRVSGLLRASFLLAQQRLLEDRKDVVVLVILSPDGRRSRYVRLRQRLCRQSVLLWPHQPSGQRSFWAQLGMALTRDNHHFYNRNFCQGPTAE
Sequence of human TLR7 (Q9NYK1 27-1049): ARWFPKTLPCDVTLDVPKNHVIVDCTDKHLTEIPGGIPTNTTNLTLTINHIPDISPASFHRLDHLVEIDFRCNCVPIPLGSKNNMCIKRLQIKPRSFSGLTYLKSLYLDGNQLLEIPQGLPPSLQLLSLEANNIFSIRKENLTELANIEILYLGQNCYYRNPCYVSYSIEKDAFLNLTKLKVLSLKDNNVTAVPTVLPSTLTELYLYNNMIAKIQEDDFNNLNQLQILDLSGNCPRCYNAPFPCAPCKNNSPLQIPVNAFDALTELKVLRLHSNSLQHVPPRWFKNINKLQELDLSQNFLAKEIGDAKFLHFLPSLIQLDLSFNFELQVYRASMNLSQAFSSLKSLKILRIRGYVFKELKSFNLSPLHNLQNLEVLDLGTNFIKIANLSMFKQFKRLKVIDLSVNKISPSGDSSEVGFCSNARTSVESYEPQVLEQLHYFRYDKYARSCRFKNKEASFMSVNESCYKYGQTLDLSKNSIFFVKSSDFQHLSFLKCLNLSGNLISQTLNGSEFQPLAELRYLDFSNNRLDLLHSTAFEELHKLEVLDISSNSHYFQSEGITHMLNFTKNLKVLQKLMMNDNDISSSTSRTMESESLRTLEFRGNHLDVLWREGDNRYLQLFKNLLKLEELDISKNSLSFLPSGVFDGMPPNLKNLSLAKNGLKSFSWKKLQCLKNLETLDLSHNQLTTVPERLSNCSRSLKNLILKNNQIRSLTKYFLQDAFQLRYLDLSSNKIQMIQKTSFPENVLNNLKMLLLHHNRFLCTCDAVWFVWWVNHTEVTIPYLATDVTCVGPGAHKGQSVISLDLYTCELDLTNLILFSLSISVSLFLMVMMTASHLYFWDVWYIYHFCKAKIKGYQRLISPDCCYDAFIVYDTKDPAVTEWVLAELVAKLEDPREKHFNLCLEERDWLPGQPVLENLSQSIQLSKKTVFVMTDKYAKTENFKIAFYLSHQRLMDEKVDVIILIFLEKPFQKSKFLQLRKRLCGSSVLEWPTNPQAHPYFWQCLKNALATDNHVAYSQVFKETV

For `Cc1cc(-c2[nH]c3ccc(C4CCN(Cc5nnc(C6CC6)o5)CC4)cc3c2C(C)C)c(F)cn1` [Example 698, 2-cyclopropyl-5-((4-(2-(5-fluoro-2-methylpyridin-4-yl)-3-isopropyl-1H-indol-5-yl)piperidin-1-yl)methyl)-1,3,4-oxadiazole], the figures for the half-inhibitory concentration (IC50) in test [1], in test [2] and in test [3] were 12400 nM, 37.6 nM and 54.2 nM, respectively.
Take `Cc1cc(-c2[nH]c3ccc(C4CCN(Cc5ncco5)CC4)cc3c2C(C)C)c(C)cn1` [Example 699, 2-((4-(2-(2,5-dimethylpyridin-4-yl)-3-isopropyl-1H-indol-5-yl)piperidin-1-yl)methyl)oxazole]: the IC50 in test [1] was found to be 40300 nM; in test [2], 4.2 nM; in test [3], 38.7 nM.
As for `Cc1cc(-c2[nH]c3ccc(C4CCN(Cc5ncco5)CC4)cc3c2C(C)C)c(F)cn1` [Example 700, 2-((4-(2-(5-fluoro-2-methylpyridin-4-yl)-3-isopropyl-1H-indol-5-yl)piperidin-1-yl)methyl)oxazole], the concentration for half-maximal inhibition (IC50) is more than 50000 nM in test [1], 16 nM in test [2] and 55.8 nM in test [3].
Consider `Cc1cc(-c2[nH]c3ccc(C4CCN(C5CCN(C(C)C)CC5)CC4)cc3c2C(C)C)ccn1` [Example 701, 3-isopropyl-5-(1′-isopropyl-[1,4′-bipiperidin]-4-yl)-2-(2-methylpyridin-4-yl)-1H-indole], for which the concentration for half-maximal inhibition (IC50) amounted to 163 nM in test [1], 5.8 nM in test [2] and 6.5 nM in test [3].
Take `Cc1cc(-c2[nH]c3ccc(C4CCN(C5CCCNC5O)CC4)cc3c2C(C)C)ccn1` (stereo not drawn) [Example 702, 4-(3-isopropyl-2-(2-methylpyridin-4-yl)-1H-indol-5-yl)-[1,3′-bipiperidin]-2′-ol]: the IC50 in test [1] was 432 nM; in test [2], 2.9 nM; in test [3], 14.4 nM.
As for `Cc1cc(-c2[nH]c3ccc(C4CCN(C5CCCNC5)CC4)cc3c2C(C)C)ccn1` (stereo not drawn) [Example 703, 5-([1,3′-bipiperidin]-4-yl)-3-isopropyl-2-(2-methylpyridin-4-yl)-1H-indole], the results for the IC50 in test [1], in test [2] and in test [3] were 526 nM, 1.8 nM and 8.8 nM, respectively.
Take `COC(=O)C1CC(N2CCC(c3ccc4[nH]c(-c5ccnc(C)c5)c(C(C)C)c4c3)CC2)CCN1` (stereo not drawn) [Example 704, methyl 4-(3-isopropyl-2-(2-methylpyridin-4-yl)-1H-indol-5-yl)-[1,4′-bipiperidine]-2′-carboxylate]: the figures for the IC50 in test [1], in test [2] and in test [3] were 551 nM, 4.1 nM and 20.9 nM, respectively.
On to `Cc1cc(-c2[nH]c3ccc(C4CCN(C5CCNCC5F)CC4)cc3c2C(C)C)ccn1` (stereo not drawn) [Example 705, 5-(3′-fluoro-[1,4′-bipiperidin]-4-yl)-3-isopropyl-2-(2-methylpyridin-4-yl)-1H-indole], for which the IC50 in test [1] is 708 nM; in test [2] it was 6.2 nM; in test [3] it was 21.9 nM.
Consider `Cc1cc(-c2[nH]c3ccc(C4CCN(C5CCN(C(C)C)CC5F)CC4)cc3c2C(C)C)ccn1` (stereo not drawn) [Example 706, 5-(3′-fluoro-1′-isopropyl-[1,4′-bipiperidin]-4-yl)-3-isopropyl-2-(2-methylpyridin-4-yl)-1H-indole], for which the IC50 is 340 nM in test [1], 5 nM in test [2] and 23 nM in test [3].
The like results for `Cc1cc(-c2[nH]c3ccc(C4CCN(C5CCCN(C(C)C)C5)CC4)cc3c2C(C)C)ccn1` (stereo not drawn) [Example 707, 3-isopropyl-5-(1′-isopropyl-[1,3′-bipiperidin]-4-yl)-2-(2-methylpyridin-4-yl)-1H-indole] were, in that order, 217 nM, 2.8 nM and 7.6 nM.
In the case of `Cc1cc(-c2[nH]c3ccc(C4CCN(C5CCNC(C)C5)CC4)cc3c2C(C)C)ccn1` (stereo not drawn) [Example 708, 3-isopropyl-5-(2′-methyl-[1,4′-bipiperidin]-4-yl)-2-(2-methylpyridin-4-yl)-1H-indole], the IC50 in test [1] was determined as 492 nM; in test [2], 6.3 nM; in test [3], 8.1 nM.
`Cc1cc(-c2[nH]c3ccc(C4CCN(C5CCNCC5C)CC4)cc3c2C(C)C)ccn1` (stereo not drawn) [Example 709, 3-isopropyl-5-(3′-methyl-[1,4′-bipiperidin]-4-yl)-2-(2-methylpyridin-4-yl)-1H-indole]: the concentration for half-maximal inhibition (IC50) in test [1] came out at 393 nM; in test [2], 12.6 nM; in test [3] it was 32.4 nM.
Regarding `Cc1cc(-c2[nH]c3ccc(C4CCN(C5CCOCC5)CC4)cc3c2C(C)C)ccn1` [Example 710, 3-isopropyl-2-(2-methylpyridin-4-yl)-5-(1-(tetrahydro-2H-pyran-4-yl)piperidin-4-yl)-1H-indole], the half-inhibitory concentration (IC50) in test [1] stood at 554 nM; in test [2], 3 nM; in test [3], 8 nM.
The like results for `Cc1cc(-c2[nH]c3ccc(C4CCN(C5COC5)CC4)cc3c2C(C)C)ccn1` [Example 711, 3-isopropyl-2-(2-methylpyridin-4-yl)-5-(1-(oxetan-3-yl)piperidin-4-yl)-1H-indole] were, in that order, 2160 nM, 11.2 nM and 11 nM.
The like results for `Cc1cc(-c2[nH]c3ccc(C4CCN(C5CC(C)OC(C)C5)CC4)cc3c2C(C)C)ccn1` (stereo not drawn) [Example 712, 5-(1-(2,6-dimethyltetrahydro-2H-pyran-4-yl)piperidin-4-yl)-3-isopropyl-2-(2-methylpyridin-4-yl)-1H-indole] were, in that order, 1190 nM, 16.4 nM and 36.8 nM.
In the case of `Cc1cc(-c2[nH]c3ccc(C4CCN(C5CC(C)OC(C)C5)CC4)cc3c2C(C)C)ccn1` (stereo not drawn) [Example 713, 5-(1-(2,6-dimethyltetrahydro-2H-pyran-4-yl)piperidin-4-yl)-3-isopropyl-2-(2-methylpyridin-4-yl)-1H-indole], the values for the IC50 in test [1], in test [2] and in test [3] were 550 nM, 14.8 nM and 3.5 nM, respectively.
The like results for `Cc1cc(-c2[nH]c3ccc(C4CCN(C5CCOCC5)CC4)cc3c2C(C)C)c(C)cn1` [Example 714, 2-(2,5-dimethylpyridin-4-yl)-3-isopropyl-5-(1-(tetrahydro-2H-pyran-4-yl)piperidin-4-yl)-1H-indole] were, in that order, 2210 nM, 2.7 nM and 31.4 nM.
In the same order, the values of `Cc1cc(-c2[nH]c3ccc(C4CCN(C5CCOCC5)CC4)cc3c2C(C)C)c(F)cn1` [Example 715, 2-(5-fluoro-2-methylpyridin-4-yl)-3-isopropyl-5-(1-(tetrahydro-2H-pyran-4-yl)piperidin-4-yl)-1H-indole] are 2990 nM, 3.8 nM and 20.7 nM.
Turning to `Cc1nccc(-c2[nH]c3ccc(C4CCN(C5CCOCC5)CC4)cc3c2C(C)C)c1C` [Example 716, 2-(2,3-dimethylpyridin-4-yl)-3-isopropyl-5-(1-(tetrahydro-2H-pyran-4-yl)piperidin-4-yl)-1H-indole], the IC50 was 1900 nM in test [1], 73.3 nM in test [2] and 144 nM in test [3].
Regarding `Cc1cc(-c2[nH]c3ccc(C4CCN(C5CCOC5)CC4)cc3c2C(C)C)ccn1` (stereo not drawn) [Example 717, 3-isopropyl-2-(2-methylpyridin-4-yl)-5-(1-(tetrahydrofuran-3-yl)piperidin-4-yl)-1H-indole], the IC50 is 1590 nM in test [1], 5.9 nM in test [2] and 15.8 nM in test [3].
For `Cc1cc(-c2[nH]c3ccc(C4CCN(C5CCCOC5)CC4)cc3c2C(C)C)ccn1` (stereo not drawn) [Example 718, 3-isopropyl-2-(2-methylpyridin-4-yl)-5-(1-(tetrahydro-2H-pyran-3-yl)piperidin-4-yl)-1H-indole], the half-maximal inhibitory concentration (IC50) in test [1] is 855 nM; in test [2] it was 6.1 nM; in test [3] it was 22.8 nM.
As for `Cc1cc(-c2[nH]c3ccc(C4CCN(C5CCOC(C)(C)C5)CC4)cc3c2C(C)C)ccn1` (stereo not drawn) [Example 719, 5-(1-(2,2-dimethyltetrahydro-2H-pyran-4-yl)piperidin-4-yl)-3-isopropyl-2-(2-methylpyridin-4-yl)-1H-indole], the IC50 in test [1] was 638 nM; in test [2], 5.2 nM; in test [3], 23.9 nM.
For `COc1cc(-c2[nH]c3ccc(C4CCN(C5CCOCC5)CC4)cc3c2C(C)C)ccn1` [Example 720, 3-isopropyl-2-(2-methoxypyridin-4-yl)-5-(1-(tetrahydro-2H-pyran-4-yl)piperidin-4-yl)-1H-indole], the IC50 in test [1] is 2900 nM; in test [2], 82.5 nM; in test [3], 51 nM.
On to `Cc1cc(-c2[nH]c3ccc(C4CCN(C5COC5)CC4)cc3c2C(C)C)c(F)cn1` [Example 721, 2-(5-fluoro-2-methylpyridin-4-yl)-3-isopropyl-5-(1-(oxetan-3-yl)piperidin-4-yl)-1H-indole], for which the values for the half-inhibitory concentration (IC50) in test [1], in test [2] and in test [3] were 19800 nM, 7.4 nM and 13.8 nM, respectively.
Regarding `Cc1cc(-c2[nH]c3ccc(C4CCN(C5COC5)CC4)cc3c2C(C)C)c(C)cn1` [Example 722, 2-(2,5-dimethylpyridin-4-yl)-3-isopropyl-5-(1-(oxetan-3-yl)piperidin-4-yl)-1H-indole], the half-inhibitory concentration (IC50) in test [1] was determined as 5890 nM; in test [2], 6.3 nM; in test [3], 24.4 nM.
In the case of `Cc1cc(-c2[nH]c3ccc(C4CCN(Cc5ncn(C)n5)CC4)cc3c2C(C)C)c(C)cn1` [Example 723, 2-(2,5-dimethylpyridin-4-yl)-3-isopropyl-5-(1-((1-methyl-1H-1,2,4-triazol-3-yl)methyl)piperidin-4-yl)-1H-indole], the IC50 in test [1] came to 14500 nM; in test [2], 8.4 nM; in test [3], 78.4 nM.
In the same order, the values of `Cc1cc(-c2[nH]c3ccc(C4CCN(C5CCOC5)CC4)cc3c2C(C)C)c(F)cn1` (stereo not drawn) [Example 725, 2-(5-fluoro-2-methylpyridin-4-yl)-3-isopropyl-5-(1-(tetrahydrofuran-3-yl)piperidin-4-yl)-1H-indole] are 2990 nM, 4.5 nM and 3 nM.
